Source: ChEMBL document CHEMBL3608269, “Triazole-Linked Glycolipids Enhance the Susceptibility of MRSA to β-Lactam Antibiotics” (ACS Med Chem Lett, 2015)
In brackets after ≈: the same amount, converted by molar mass. Activity calls are given as the source filed them. No cut-off for these calls is given here.

How the values were obtained:
[1] = tested on: Staphylococcus aureus; assay: Antibacterial activity against methicillin-resistant Staphylococcus aureus ATCC 43300 after 20 to 24 hrs by CLSI method; type: functional
[2] = tested on: Staphylococcus aureus; assay: Potentiation of oxacillin-mediated antibacterial activity against methicillin-resistant Staphylococcus aureus ATCC 43300 at 32 ug/ml after 20 to 24 hrs by CLSI method; type: functional
[3] = tested on: Staphylococcus aureus; assay: Potentiation of oxacillin-mediated antibacterial activity against methicillin-resistant Staphylococcus aureus ATCC 43300 assessed as decrease in oxacillin MIC at 32 ug/ml after 20 to 24 hrs by CLSI method relative to control; type: functional
[4] = tested on: Staphylococcus aureus; assay: Antibacterial activity against methicillin-resistant Staphylococcus aureus R16 clinical isolate after 20 to 24 hrs by CLSI method; type: functional
[5] = tested on: Staphylococcus aureus; assay: Antibacterial activity against methicillin-resistant Staphylococcus aureus R304 clinical isolate after 20 to 24 hrs by CLSI method; type: functional
[6] = tested on: Staphylococcus aureus; assay: Antibacterial activity against methicillin-resistant Staphylococcus aureus R308 clinical isolate after 20 to 24 hrs by CLSI method; type: functional
[7] = tested on: Staphylococcus aureus; assay: Antibacterial activity against methicillin-resistant Staphylococcus aureus ATCC 43300 assessed as change in bacterial surface at 2 ug/ml after 4 hrs by scanning electron microscopic analysis; type: functional, organism-based
[8] = tested on: Staphylococcus aureus; assay: Antibacterial activity against methicillin-resistant Staphylococcus aureus R306 clinical isolate after 20 to 24 hrs by CLSI method; type: functional
[9] = tested on: Staphylococcus aureus; assay: Antibacterial activity against methicillin-resistant Staphylococcus aureus R302 clinical isolate after 20 to 24 hrs by CLSI method; type: functional
[10] = tested on: Staphylococcus aureus; assay: Antibacterial activity against methicillin-resistant Staphylococcus aureus R36 clinical isolate after 20 to 24 hrs by CLSI method; type: functional
[11] = tested on: Staphylococcus aureus; assay: Antibacterial activity against methicillin-resistant Staphylococcus aureus R313 clinical isolate after 20 to 24 hrs by CLSI method; type: functional
[12] = tested on: Staphylococcus aureus; assay: Antibacterial activity against methicillin-resistant Staphylococcus aureus R49 clinical isolate after 20 to 24 hrs by CLSI method; type: functional
[13] = tested on: Staphylococcus aureus; assay: Downregulation of mecA mRNA expression in methicillin-resistant Staphylococcus aureus ATCC 43300 at 2 ug/ml after 4 hrs by RT-PCR analysis; type: functional, organism-based
[14] = tested on: Staphylococcus aureus; assay: Antibacterial activity against methicillin-resistant Staphylococcus aureus R314 clinical isolate after 20 to 24 hrs by CLSI method; type: functional
[15] = tested on: Staphylococcus aureus; assay: Antibacterial activity against methicillin-resistant Staphylococcus aureus ATCC 43300 assessed as growth inhibition at 2 ug/ml measured up to 24 hrs by time kill assay; type: functional, organism-based
[16] = tested on: Staphylococcus aureus; assay: Antibacterial activity against methicillin-resistant Staphylococcus aureus R50 clinical isolate after 20 to 24 hrs by CLSI method; type: functional
[17] = tested on: Staphylococcus aureus; assay: Antibacterial activity against methicillin-resistant Staphylococcus aureus R15 clinical isolate after 20 to 24 hrs by CLSI method; type: functional
[18] = tested on: Staphylococcus aureus; assay: Antibacterial activity against methicillin-resistant Staphylococcus aureus R53 clinical isolate after 20 to 24 hrs by CLSI method; type: functional
[19] = tested on: Staphylococcus aureus; assay: Antibacterial activity against methicillin-resistant Staphylococcus aureus ATCC 43300 assessed as growth inhibition at 2 ug/ml after 24 hrs by Epsilometer test; type: functional, organism-based

SMILES | MIC [1] | MIC [2] | further results
CCCCCCCCCCCCCCCCO [CETYL ALCOHOL] | > 256 µg/mL | > 32 µg/mL | –
CCCCCCCCCCCCO [DODECANOL] | > 256 µg/mL | > 32 µg/mL | –
CCCCCCCCO [OCTANOL] | > 256 µg/mL | > 32 µg/mL | –
CCCCCCCCCCCCOCc1cn([C@@H]2O[C@H](CO)[C@@H](O)[C@H](O)[C@@H]2O)nn1 | 256 µg/mL (≈ 596 µM) | 4 µg/mL | fold change (FC) [3]: 64
CCCCCCCCCCCCCCCCOCc1cn([C@@H]2O[C@H](CO)[C@H](O)[C@H](O)[C@H]2O)nn1 | 256 µg/mL (≈ 527 µM) | 16 µg/mL | fold change (FC) [3]: 16
CCCCCCO [1-HEXANOL] | > 256 µg/mL | > 32 µg/mL | –
CCCCCCCCCCCCCCO[C@@H]1O[C@H](CO)[C@@H](O)[C@H](O)[C@H]1O | > 256 µg/mL | > 32 µg/mL | –
CCCCCCCCCCCCCCOCc1cn([C@@H]2O[C@H](CO)[C@H](O)[C@H](O)[C@H]2O)nn1 | 256 µg/mL (≈ 559 µM) | 8 µg/mL | fold change (FC) [3]: 32
CCCCCCCCCCCCCCOCc1cn([C@@H]2O[C@H](CO)[C@@H](O)[C@H](O)[C@H]2O)nn1 | 256 µg/mL (≈ 559 µM) | 4 µg/mL | fold change (FC) [3]: 64
CCCCCCCCCCCCCCCCO[C@@H]1O[C@H](CO)[C@@H](O)[C@H](O)[C@H]1O | > 256 µg/mL | > 32 µg/mL | –
Cc1onc(-c2ccccc2)c1C(=O)N[C@@H]1C(=O)N2[C@@H]1SC(C)(C)[C@@H]2C(=O)O [OXACILLIN] | 64 µg/mL (≈ 159 µM) | – | MIC [4]: ≥ 256 µg/mL; MIC [5]: 512 µg/mL (≈ 1280 µM); MIC [6]: 1020 µg/mL (≈ 2550 µM); Activity [7]: inactive; MIC [8]: 512 µg/mL (≈ 1280 µM); MIC [9]: 512 µg/mL (≈ 1280 µM); MIC [10]: 128 µg/mL (≈ 319 µM); MIC [11]: 16 µg/mL (≈ 39.9 µM); MIC [12]: 8 µg/mL (≈ 19.9 µM); Activity [13]: inactive; MIC [14]: 512 µg/mL (≈ 1280 µM); growth inhibition (GI) [15]: inactive; MIC [16]: 8 µg/mL (≈ 19.9 µM); MIC [17]: 256 µg/mL (≈ 638 µM); MIC [18]: 8 µg/mL (≈ 19.9 µM); growth inhibition (GI) [19]: inactive
CCCCCCCCCCO [DECANOL] | > 256 µg/mL | > 32 µg/mL | –
CCCCCCCCCCCCCCCCCCO [CETOSTEARYL ALCOHOL] | > 256 µg/mL | > 32 µg/mL | –
CCCCCCCCCCCCCCO [MYRISTYL ALCOHOL] | > 256 µg/mL | > 32 µg/mL | –
